{
  "source": "PubChem BioAssay AID1259409",
  "about": "(Chemical Carcinogenesis Research Information System (CCRIS), 2018)",
  "origin": "cited, not measured here",
  "system": "rodent chemically induced tumor inhibition, incidence and multiplicity",
  "test": "CCRIS tumor inhibitor studies",
  "data": [
    {"smiles": "O=C(CCCN1CCC(O)(c2ccc(Cl)cc2)CC1)c1ccc(F)cc1", "values": [
      {"measurement": "tumour outcome (control, treated, inhibition, significance)", "setting": "Carcinogen: AZOXYMETHANE, 25843-45-2, Dose [Inhibitor]: 0, 2 MG/KG BW SUSPENDED IN 1 ML/MG OLIVE OIL 1/2 D FOR STUDY DURATION (STUDY DURATION: 30 WK), Route [Inhibitor]: SUBCUTANEOUS, Species: RAT, Strain/Sex: WISTAR/MALE, Target Tissue: Type of Lesion: COLON: TUMOR, Dose [Carcinogen]: 7.4 MG/KG IN 0.9% SALINE 1/WK FOR 10 WK", "value": "9/17 (53%), 3/19 (16%), 70%, p<0.05"}
    ]},
    {"smiles": "O=C(CBr)c1ccc(Br)cc1", "values": [
      {"measurement": "tumour outcome (control, treated, inhibition, significance)", "setting": "Carcinogen: 7,12-DIMETHYLBENZ[A]ANTHRACENE, 57-97-6, Dose [Inhibitor]: 10 UMOL APPLIED 30-40 MIN BEFORE EACH TPA TREATMENT AND CONCURRENTLY WITH TPA (STUDY DURATION: 18 WK), Route [Inhibitor]: DERMAL, Species: MOUSE, Strain/Sex: CD-1/FEMALE, Target Tissue: Type of Lesion: SKIN: PAPILLOMA, Dose [Carcinogen]: 200 NMOL ONCE, Promoter: 12-O-TETRADECANOYLPHORBOL-13-ACETATE, 16561-29-8", "value": "96%, 57%, 41%, not calculated"},
      {"measurement": "tumour outcome (control, treated, inhibition, significance)", "setting": "Carcinogen: N-NITROSODIETHYLAMINE, 55-18-5, 2-ACETYLAMINOFLUORENE, 53-93-6, CARBON TETRACHLORIDE, 56-23-5, Carcinogen: N-NITROSODIETHYLAMINE, 55-18-5, 2-ACETYLAMINOFLUORENE, 53-93-6, CARBON TETRACHLORIDE, 56-23-5, Dose [Inhibitor]: 0, 0.75% IN DIET FOR 29 WK ADMINISTERED TO RATS BEARING PERSISTENT NODULES FOLLOWING CARCINOGEN TREATMENT (STUDY DURATIO, Route [Inhibitor]: ORAL, Species: RAT, Strain/Sex: F344/MALE, Target Tissue: Type of Lesion: LIVER: HEPATOCELLULAR CARCINOMA, Dose [Carcinogen]: 200 MG/KG BW DEN ONCE, 0.002% 2-AAF IN DIET FOR 2 WK, 1 MG/KG BW CCL4 MIDWAY IN 2-AAF TREATMENT, Dose [Carcinogen]: 200 MG/KG BW DEN ONCE, 0.002% 2-AAF IN DIET FOR 2 WK, 1 MG/KG BW CCL4 MIDWAY IN 2-AAF TREATMENT, Promoter: NONE USED", "value": "7/8 (88%), 11/11 (100%), -12%, not significant"},
      {"measurement": "tumour outcome (control, treated, inhibition, significance)", "setting": "Carcinogen: N-NITROSODIETHYLAMINE, 55-18-5, 2-ACETYLAMINOFLUORENE, 53-93-6, CARBON TETRACHLORIDE, 56-23-5, Carcinogen: N-NITROSODIETHYLAMINE, 55-18-5, 2-ACETYLAMINOFLUORENE, 53-93-6, CARBON TETRACHLORIDE, 56-23-5, Dose [Inhibitor]: 0, 0.75% IN DIET FOR 29 WK ADMINISTERED TO RATS BEARING PERSISTENT NODULES FOLLOWING CARCINOGEN TREATMENT (STUDY DURATIO, Route [Inhibitor]: ORAL, Species: RAT, Strain/Sex: F344/MALE, Target Tissue: Type of Lesion: LIVER: HEPATOCELLULAR CARCINOMA, Dose [Carcinogen]: 200 MG/KG BW DEN ONCE, 0.002% 2-AAF IN DIET FOR 2 WK, 1 ML/KG BW CCL4 MIDWAY IN 2-AAF TREATMENT, Dose [Carcinogen]: 200 MG/KG BW DEN ONCE, 0.002% 2-AAF IN DIET FOR 2 WK, 1 ML/KG BW CCL4 MIDWAY IN 2-AAF TREATMENT, Promoter: PHENOBARBITAL, 50-06-6", "value": "12/12 (100%), 13/14 (93%), 7%, not significant"}
    ]},
    {"smiles": "CCCCC(=O)O[C@H]1CC[C@H]2[C@@H]3CCc4cc(O)ccc4[C@H]3CC[C@]12C", "values": [
      {"measurement": "tumour outcome (control, treated, inhibition, significance)", "setting": "Carcinogen: DIMETHYLNITROSAMINE, 62-75-9, Dose [Inhibitor]: 1 MG IN CASTOR OIL ADMINISTERED TO IMMATURE RATS 1/4 WK FOR LIFE BEGINNING 100 D POST CARCINOGEN DOSE (STUDY DURATION: 1, Route [Inhibitor]: SUBCUTANEOUS, Species: RAT, Strain/Sex: STRAIN-CD/MALE, Target Tissue: Type of Lesion: KIDNEY TUBULE: ADENOMA, Dose [Carcinogen]: 30 MG/KG IN DISTILLED WATER ONCE, Promoter: NONE USED", "value": "15/28 (54%), 9/25 (36%), 33%, not calculated"},
      {"measurement": "tumour outcome (control, treated, inhibition, significance)", "setting": "Carcinogen: DIMETHYLNITROSAMINE, 62-75-9, Dose [Inhibitor]: 1 MG IN CASTOR OIL ADMINISTERED TO IMMATURE RATS 1/4 WK FOR LIFE BEGINNING 100 D POST CARCINOGEN DOSE (STUDY DURATION: 1, Route [Inhibitor]: SUBCUTANEOUS, Species: RAT, Strain/Sex: STRAIN-CD/MALE, Target Tissue: Type of Lesion: KIDNEY: MESENCHYMAL TUMOR, Dose [Carcinogen]: 30 MG/KG IN DISTILLED WATER ONCE, Promoter: NONE USED", "value": "16/28 (57%), 14/25 (56%), 2%, not significant"},
      {"measurement": "tumour outcome (control, treated, inhibition, significance)", "setting": "Carcinogen: DIMETHYLNITROSAMINE, 62-75-9, Dose [Inhibitor]: 1 MG IN CASTOR OIL ADMINISTERED TO IMMATURE RATS 1/4 WK FOR LIFE BEGINNING 100 D POST CARCINOGEN DOSE (STUDY DURATION: 1, Route [Inhibitor]: SUBCUTANEOUS, Species: RAT, Strain/Sex: STRAIN-CD/MALE, Target Tissue: Type of Lesion: KIDNEY: TRANSITIONAL CELL TUMOR, Dose [Carcinogen]: 30 MG/KG IN DISTILLED WATER ONCE, Promoter: NONE USED", "value": "1/28 (4%), 0/25 (0%), 100%, not significant"},
      {"measurement": "tumour outcome (control, treated, inhibition, significance)", "setting": "Carcinogen: DIMETHYLNITROSAMINE, 62-75-9, Dose [Inhibitor]: 1 MG IN CASTOR OIL ADMINISTERED TO IMMATURE RATS 1/4 WK FOR LIFE BEGINNING 100 D POST CARCINOGEN DOSE (STUDY DURATION: 1, Route [Inhibitor]: SUBCUTANEOUS, Species: RAT, Strain/Sex: STRAIN-CD/MALE, Target Tissue: Type of Lesion: LUNG: ALVEOGENIC TUMOR, Dose [Carcinogen]: 30 MG/KG IN DISTILLED WATER ONCE, Promoter: NONE USED", "value": "19/28 (68%), 6/25 (24%), 65%, p<0.001"},
      {"measurement": "tumour outcome (control, treated, inhibition, significance)", "setting": "Carcinogen: DIMETHYLNITROSAMINE, 62-75-9, Dose [Inhibitor]: 1 MG IN CASTOR OIL ADMINISTERED TO MATURE RATS 1/4 WK FOR LIFE BEGINNING 100 D POST CARCINOGEN DOSE (STUDY DURATION: 140, Route [Inhibitor]: SUBCUTANEOUS, Species: RAT, Strain/Sex: STRAIN-CD/MALE, Target Tissue: Type of Lesion: KIDNEY TUBULE: ADENOMA, Dose [Carcinogen]: 30 MG/KG IN DISTILLED WATER ONCE, Promoter: NONE USED", "value": "16/26 (62%), 18/28 (64%), -3%, not significant"},
      {"measurement": "tumour outcome (control, treated, inhibition, significance)", "setting": "Carcinogen: DIMETHYLNITROSAMINE, 62-75-9, Dose [Inhibitor]: 1 MG IN CASTOR OIL ADMINISTERED TO MATURE RATS 1/4 WK FOR LIFE BEGINNING 100 D POST CARCINOGEN DOSE (STUDY DURATION: 140, Route [Inhibitor]: SUBCUTANEOUS, Species: RAT, Strain/Sex: STRAIN-CD/MALE, Target Tissue: Type of Lesion: LUNG: ALVEOGENIC TUMOR, Dose [Carcinogen]: 30 MG/KG IN DISTILLED WATER ONCE, Promoter: NONE USED", "value": "13/26 (50%), 3/28 (11%), 78%, p<0.05"}
    ]},
    {"smiles": "O=S(=O)([O-])[O-].O=S(=O)([O-])[O-].O=S(=O)([O-])[O-].[Fe+3].[Fe+3]", "values": [
      {"measurement": "tumour outcome (control, treated, inhibition, significance)", "setting": "Dose [Inhibitor]: 0, 15.5 UMOL (FE) INJECTED WITH CARCINOGEN INTO THIGH OF BOTH HIND LIMBS (STUDY DURATION: 79 WK), Route [Inhibitor]: INTRAMUSCULAR, Species: RAT, Strain/Sex: F344/MALE, Target Tissue: Type of Lesion: INJECTION SITE: SARCOMA, Dose [Carcinogen]: 2.5 MG PER SITE INJECTED INTO THIGH OF BOTH HIND LIMBS ONCE, Promoter: NONE USED", "value": "100%, 98%, 2%, not significant"},
      {"measurement": "tumour outcome (control, treated, inhibition, significance)", "setting": "Dose [Inhibitor]: 0, 30 UMOL (FE) INJECTED WITH CARCINOGEN INTO THIGH OF BOTH HIND LIMBS (STUDY DURATION: 79 WK), Route [Inhibitor]: INTRAMUSCULAR, Species: RAT, Strain/Sex: F344/MALE, Target Tissue: Type of Lesion: INJECTION SITE: SARCOMA, Dose [Carcinogen]: 2.5 MG PER SITE INJECTED INTO THIGH OF BOTH HIND LIMBS ONCE, Promoter: NONE USED", "value": "100%, 45%, 55%, not calculated"},
      {"measurement": "tumour outcome (control, treated, inhibition, significance)", "setting": "Dose [Inhibitor]: 0, 60 UMOL (FE) INJECTED INTO NAPE OF NECK (STUDY DURATION: 79 WK), Route [Inhibitor]: SUBCUTANEOUS, Species: RAT, Strain/Sex: F344/MALE, Target Tissue: Type of Lesion: INJECTION SITE: SARCOMA, Dose [Carcinogen]: 2.5 MG PER SITE INJECTED INTO THIGH OF BOTH HIND LIMBS, Promoter: NONE USED", "value": "100%, 100%, 0%, not significant"},
      {"measurement": "tumour outcome (control, treated, inhibition, significance)", "setting": "Dose [Inhibitor]: 0, 60 UMOL (FE) INJECTED WITH CARCINOGEN INTO THIGH OF BOTH HIND LIMBS (STUDY DURATION: 79 WK), Route [Inhibitor]: INTRAMUSCULAR, Species: RAT, Strain/Sex: F344/MALE, Target Tissue: Type of Lesion: INJECTION SITE: SARCOMA, Dose [Carcinogen]: 2.5 MG PER SITE INJECTED INTO THIGH OF BOTH HIND LIMBS ONCE, Promoter: NONE USED", "value": "100%, 35%, 65%, not calculated"}
    ]},
    {"smiles": "C=CCc1ccc(O)c(OC)c1", "values": [
      {"measurement": "tumour outcome (control, treated, inhibition, significance)", "setting": "Carcinogen: BENZO[A]PYRENE, 50-32-8, Dose [Inhibitor]: 10 MG IN 0.1 ML ACETONE 3/WK ADMINISTERED SIMULTANEOUSLY WITH CARCINOGEN FOR DU RATION OF STUDY (STUDY DURATION: 368 D), Route [Inhibitor]: DERMAL, Species: MOUSE, Strain/Sex: ICR/FEMALE, Target Tissue: Type of Lesion: SKIN: PAPILLOMA, Dose [Carcinogen]: 5 UG IN 0.1 ML ACETONE 3/WK FOR DURATION OF STUDY, Promoter: NONE USED", "value": "14/50 (28%), 4/50 (8%), 71%, not calculated"},
      {"measurement": "tumour outcome (control, treated, inhibition, significance)", "setting": "Carcinogen: BENZO[A]PYRENE, 50-32-8, Dose [Inhibitor]: 10 MG IN 0.1 ML ACETONE 3/WK ADMINISTERED SIMULTANEOUSLY WITH CARCINOGEN FOR DU RATION OF STUDY (STUDY DURATION: 368 D), Route [Inhibitor]: DERMAL, Species: MOUSE, Strain/Sex: ICR/FEMALE, Target Tissue: Type of Lesion: SKIN: SQUAMOUS CARCINOMA, Dose [Carcinogen]: 5 UG IN 0.1 ML ACETONE 3/WK FOR DURATION OF STUDY, Promoter: NONE USED", "value": "10/50 (20%), 2/50 (4%), 80%, not calculated"}
    ]}
  ]
}
